Results taken from patent US8586318B2, “Restricted access media and methods for making restricted access media” (Board of Regents of the University of Nebraska, priority 2008, dated 2013).

Legend:
[1] = system: anti-fluorescein antibodies; assay: Ultrafast extraction on anti-fluorescein RAM column, flow-based; type: binding, mouse
Method: For chromatographic studies, 200 μL injections of samples containing 0.5 nM fluorescein or 3 nM of fluorescein-BSA were made at flow rates ranging from 0.1-1.0 mL/min. The injections were performed at room temperature using 0.067 M potassium phosphate buffer (pH 7.4) as the application buffer. Two or three replicate injections were made at each flow rate onto columns containing the anti-fluorescein IA-RAM support or the corresponding control support. […] The fraction of extracted fluorescein was calculated by comparing the areas of the non-retained peaks to those obtained using a control column. […] The retained species were eluted between studies by washing the column with a 0.067 M potassium phosphate buffer (pH 2.5) for 20 minutes. Elution was followed by a column regeneration step by applying 0.067 M phosphate application buffer (pH 7.4) for 10 minutes before each new sample injection. The RAM, specifically an IA-RAM made using anti-fluorescein antibody, was tested for use in a flow-based system for the selective, ultrafast extraction of fluorescein versus a fluorescein-BSA conjugate. This was accomplished by comparing the results obtained with a RAM column to results for a control column containing only diol silica.

[2] = system: anti-fluorescein antibodies; assay: Static binding of fluorescein or fluorescein-BSA to anti-fluorescein RAM support; set-up: species or system mouse; conditions: 100 Å silica
Method: The binding properties of the anti-fluorescein IA-RAM support were initially determined before and after digestion by reacting this support with a known excess of fluorescein (sodium salt, MW=376 Da) or fluorescein-BSA conjugate (average MW=69.5 kDa). Studies were performed using anti-fluorescein antibodies covalently linked to Nucleosil Si-100 using the hydrazide-activation method. A 2 mg portion of the desired anti-fluorescein support was incubated with shaking in 1 mL of a 0.040 μg/mL fluorescein solution or 1 mL of 20 μg/mL fluorescein-BSA solution in 0.1 M potassium phosphate buffer (pH 7.4) at 4° C. for 30 minutes. The mixtures were centrifuged and the supernatant was analyzed for fluorescein or fluorescein-BSA content based on the fluorescence of the solutions. Standard solutions that contained 0.002-2.0 μg/mL fluorescein or 1-30 μg/mL of the fluorescein-BSA conjugate in 0.10 M potassium phosphate buffer (pH 7.4) were also analyzed. The amount of fluorescein or fluorescein-BSA bound to the anti-fluorescein IA-RAM supports was determined by comparing the final and initial concentrations of fluorescein or fluorescein-BSA that remained in solution. […] The fluorescein or fluorescein-BSA that was bound by anti-fluorescein antibodies was determined by determining the amount of the analytes that remained in solution after the incubation step.

fluorescein-BSA conjugate: fluorescein conjugate of bovine serum albumin, prepared using fluorescein isothiocyanate, 12 mol fluorescein/mol protein
retention on anti-fluorescein RAM column (in words) ([1]; injected at 0.1 mL/min): no significant degree of binding | extracted by anti-fluorescein RAM support ([1]; same conditions as used for fluorescein): less than 1% | original binding capacity of the covalently linked antibodies ([2]; before papain treatment, hydrazide method, 30 minutes incubation): 0.69 (±0.01) mg/g silica | decrease of binding capacity after treatment with papain ([2]; papain 90 minutes at 37° C., 1:100 (w/w)): 92%
